From article doi:10.1101/2025.07.03.663083, “TMC1 and TMC2 are cholesterol-dependent scramblases that regulate membrane homeostasis in auditory hair cells” (bioRxiv, 2025)

Legend:
Assay in all cases: proteoliposome scramblase assay, dithionite and BSA back-extraction of NBD fluorescence
Type in all cases: functional
MuTMC2 (truncated) = molecular target: T1, MuTMC2 (truncated) (Melopsittacus undulatus, UniProt Z9DQS5U608); settings: labelled compound; POPC/POPE/POPS […] with […] cholesterol, pH […] °C; lipid translocation, no headgroup specificity
T1 construct: transmembrane core without N- and C-terminal domains; His-GFP tag kept; Sf9 (baculovirus); purified in DDM/CHS, reconstituted in liposomes
T1 sequence (Z9DQS5U608 211-807): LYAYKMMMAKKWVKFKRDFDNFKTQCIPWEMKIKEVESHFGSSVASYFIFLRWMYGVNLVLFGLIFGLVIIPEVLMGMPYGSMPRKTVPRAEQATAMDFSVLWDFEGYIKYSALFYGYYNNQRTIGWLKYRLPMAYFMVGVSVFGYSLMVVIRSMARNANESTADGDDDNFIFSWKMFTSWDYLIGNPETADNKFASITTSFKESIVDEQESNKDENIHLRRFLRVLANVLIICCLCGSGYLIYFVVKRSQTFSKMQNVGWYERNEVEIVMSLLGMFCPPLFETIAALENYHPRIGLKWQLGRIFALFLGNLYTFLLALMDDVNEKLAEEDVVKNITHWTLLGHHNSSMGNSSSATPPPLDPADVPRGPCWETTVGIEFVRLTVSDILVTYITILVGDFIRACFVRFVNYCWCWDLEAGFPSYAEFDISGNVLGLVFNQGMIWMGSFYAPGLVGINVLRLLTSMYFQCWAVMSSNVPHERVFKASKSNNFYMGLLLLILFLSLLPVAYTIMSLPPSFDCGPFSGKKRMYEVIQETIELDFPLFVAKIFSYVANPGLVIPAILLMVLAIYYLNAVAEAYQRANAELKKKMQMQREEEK

FL MuTMC2 = molecular target: T2, FL MuTMC2 (Melopsittacus undulatus, UniProt Z9DQS5U608); settings: labelled compound; POPC/POPE/POPS […] with […] cholesterol, pH […] °C; lipid translocation, no headgroup specificity
T2 construct: full length, 1-928; His-GFP tag; Sf9 (baculovirus); reconstituted in liposomes
T2 sequence (Z9DQS5U608 1-928): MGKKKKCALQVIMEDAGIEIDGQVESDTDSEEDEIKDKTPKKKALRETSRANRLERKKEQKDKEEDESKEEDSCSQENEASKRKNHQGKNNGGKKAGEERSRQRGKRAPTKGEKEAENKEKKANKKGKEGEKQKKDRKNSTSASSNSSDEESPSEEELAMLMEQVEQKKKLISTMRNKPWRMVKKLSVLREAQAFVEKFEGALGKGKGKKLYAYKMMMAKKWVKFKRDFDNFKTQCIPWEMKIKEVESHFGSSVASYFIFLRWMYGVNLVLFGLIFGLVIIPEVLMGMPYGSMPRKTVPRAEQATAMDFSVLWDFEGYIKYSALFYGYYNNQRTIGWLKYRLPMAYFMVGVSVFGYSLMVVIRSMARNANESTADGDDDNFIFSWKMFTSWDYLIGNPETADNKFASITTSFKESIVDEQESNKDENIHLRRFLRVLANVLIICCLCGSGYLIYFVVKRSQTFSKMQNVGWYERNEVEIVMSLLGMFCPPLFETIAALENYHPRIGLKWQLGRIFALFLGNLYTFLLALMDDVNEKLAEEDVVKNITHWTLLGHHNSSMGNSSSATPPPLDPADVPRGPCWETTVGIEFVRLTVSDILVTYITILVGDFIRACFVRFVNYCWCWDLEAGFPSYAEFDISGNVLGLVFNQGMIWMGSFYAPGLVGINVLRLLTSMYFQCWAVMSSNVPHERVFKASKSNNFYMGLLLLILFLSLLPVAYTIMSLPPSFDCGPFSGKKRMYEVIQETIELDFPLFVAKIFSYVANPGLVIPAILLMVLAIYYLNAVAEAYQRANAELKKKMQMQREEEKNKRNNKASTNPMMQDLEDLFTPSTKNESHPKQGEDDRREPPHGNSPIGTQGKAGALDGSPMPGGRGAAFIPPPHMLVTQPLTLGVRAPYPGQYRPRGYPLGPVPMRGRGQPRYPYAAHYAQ

FL CmTMC1 = molecular target: T3, FL CmTMC1 (Chelonia mydas, UniProt Z9P3M8BL59); settings: labelled compound; POPC/POPE/POPS 2:1:1 with 10% cholesterol, pH 7.4, 25 °C; lipid translocation, no headgroup specificity
T3 construct: full length, 1-955; His-GFP tag; Sf9 (baculovirus); reconstituted in liposomes
T3 sequence (Z9P3M8BL59 1-955): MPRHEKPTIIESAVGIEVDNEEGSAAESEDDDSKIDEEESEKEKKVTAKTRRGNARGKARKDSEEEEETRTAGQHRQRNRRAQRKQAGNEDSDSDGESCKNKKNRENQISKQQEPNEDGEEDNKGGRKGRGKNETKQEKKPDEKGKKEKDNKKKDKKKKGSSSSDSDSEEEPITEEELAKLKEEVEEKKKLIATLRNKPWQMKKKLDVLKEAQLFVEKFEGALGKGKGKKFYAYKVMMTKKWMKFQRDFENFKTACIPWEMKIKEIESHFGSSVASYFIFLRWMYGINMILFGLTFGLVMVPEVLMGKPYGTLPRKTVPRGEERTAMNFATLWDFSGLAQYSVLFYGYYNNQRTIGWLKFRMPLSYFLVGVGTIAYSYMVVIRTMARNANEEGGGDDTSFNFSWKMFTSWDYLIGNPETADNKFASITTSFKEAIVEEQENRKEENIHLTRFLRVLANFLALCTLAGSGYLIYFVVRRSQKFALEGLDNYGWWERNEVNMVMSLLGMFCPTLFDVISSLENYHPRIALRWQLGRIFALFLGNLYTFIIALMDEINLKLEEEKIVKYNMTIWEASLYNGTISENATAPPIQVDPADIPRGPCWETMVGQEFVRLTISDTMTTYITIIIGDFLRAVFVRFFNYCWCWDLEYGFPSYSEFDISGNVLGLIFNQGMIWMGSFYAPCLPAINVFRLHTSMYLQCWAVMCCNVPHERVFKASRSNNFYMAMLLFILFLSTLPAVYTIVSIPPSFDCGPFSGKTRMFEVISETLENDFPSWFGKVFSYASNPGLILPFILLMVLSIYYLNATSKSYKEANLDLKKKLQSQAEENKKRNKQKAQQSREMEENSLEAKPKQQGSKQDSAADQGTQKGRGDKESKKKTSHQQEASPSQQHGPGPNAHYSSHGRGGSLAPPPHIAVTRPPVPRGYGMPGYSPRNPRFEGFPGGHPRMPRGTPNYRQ

CmTMC1 (truncated) = molecular target: T4, CmTMC1 (truncated) (Chelonia mydas, UniProt Z9P3M8BL59); settings: labelled compound; POPC/POPE/POPS 2:1:1 with 10% cholesterol, pH 7.4, 25 °C; lipid translocation, no headgroup specificity
T4 construct: transmembrane core without N- and C-terminal domains; His-GFP tag kept; Sf9 (baculovirus); purified in DDM/CHS, reconstituted in liposomes
T4 sequence (Z9P3M8BL59 230-828): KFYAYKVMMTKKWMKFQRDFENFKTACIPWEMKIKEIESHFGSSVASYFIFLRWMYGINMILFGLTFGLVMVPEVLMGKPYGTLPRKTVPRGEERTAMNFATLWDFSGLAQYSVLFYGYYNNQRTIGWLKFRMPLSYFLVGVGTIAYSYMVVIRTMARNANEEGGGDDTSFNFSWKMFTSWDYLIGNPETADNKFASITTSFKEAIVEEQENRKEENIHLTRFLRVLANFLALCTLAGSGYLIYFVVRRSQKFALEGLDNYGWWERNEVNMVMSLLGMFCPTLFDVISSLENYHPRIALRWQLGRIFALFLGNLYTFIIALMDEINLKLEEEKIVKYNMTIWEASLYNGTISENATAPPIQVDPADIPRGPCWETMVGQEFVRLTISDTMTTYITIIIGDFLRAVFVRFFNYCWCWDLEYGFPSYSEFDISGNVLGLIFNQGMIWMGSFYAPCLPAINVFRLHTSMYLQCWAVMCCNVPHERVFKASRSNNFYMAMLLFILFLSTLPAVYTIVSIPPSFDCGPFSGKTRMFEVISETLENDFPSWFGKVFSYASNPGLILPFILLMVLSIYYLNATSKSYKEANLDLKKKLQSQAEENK

CCCCCCCCCCCCCC(=O)OC[C@H](COP(=O)(O)OCCN)OC(=O)CCCCCNc1ccc([N+](=O)[O-])c2nonc12 [NBD-PE, 1-myristoyl-2-sn-glycero-3-phosphoethanolamine]
proteoliposome scramblase assay, dithionite and BSA back-extraction of NBD fluor (MuTMC2 (truncated)): due to scrambling of the fluorescent NBD-PE lipids by the TMC proteins
proteoliposome scramblase assay, dithionite and BSA back-extraction of NBD fluor (FL MuTMC2): no differences in PLS activity between truncated and FL CmTMC1 and MuTMC2
proteoliposome scramblase assay, dithionite and BSA back-extraction of NBD fluor (FL CmTMC1): no differences in PLS activity between truncated and FL CmTMC1 and MuTMC2
proteoliposome scramblase assay, dithionite and BSA back-extraction of NBD fluor (CmTMC1 (truncated)): due to scrambling of the fluorescent NBD-PE lipids by the TMC proteins
